The numbers were not newly measured in patent publication US6632839B2, “Capsicum based disinfectant and sterilizant” (priority 1997, dated 2003), which cites them from elsewhere.

Read-outs that look alike come from different tables or passages of the source.

The conditions of the data set: for Solubility in water: water / cold water.

With `COc1cc(CNC(=O)CCCC/C=C/C(C)C)ccc1O` [Capsaicin, N-vanillyl-8-methyl-6-(E)-noneamide], the “Solubility in alcohol, fats, oils” value is “very soluble in fats, oils and alcohol”; the Solubility in water result is reported as “sparingly soluble in water”. For the setting “listed as capsaicin”, the “Solubility in alcohol, fats, oils” value was “soluble in alcohol” and the Solubility in water result is listed as “insoluble in cold water”.
